Experimental data: patent US20150252048A1, “SUBSTITUTED N-(3-PYRIMIDIN-4-YL)PHENYL)ACRYLAMIDE ANALOGS AS TYROSINE RECEPTOR KINASE BTK INHIBITORS” (UNIVERSITY OF UTAH RESEARCH FOUNDATION, priority 2012, published 2015)
Where “and” joins values, the source holds several entries; their conditions need not be identical. Equal entries are not always repeated. Where two headings read alike, the source gives them in different places.

Key:
[1] = target: T1, recombinant full-length human BTK kinase (Homo sapiens, UniProt Q06187); experiment: BTK kinase assay: ADP generation assay (ADP-Glo); type: biochemical; settings: 60 nM BTK, MBP substrate, 60 min
T1 construct: recombinant full-length human BTK kinase with a (His)6 tag; (His)6; purchased Invitrogen Corporation, Carlsbad, Calif
T1 sequence (Q06187 whole entry): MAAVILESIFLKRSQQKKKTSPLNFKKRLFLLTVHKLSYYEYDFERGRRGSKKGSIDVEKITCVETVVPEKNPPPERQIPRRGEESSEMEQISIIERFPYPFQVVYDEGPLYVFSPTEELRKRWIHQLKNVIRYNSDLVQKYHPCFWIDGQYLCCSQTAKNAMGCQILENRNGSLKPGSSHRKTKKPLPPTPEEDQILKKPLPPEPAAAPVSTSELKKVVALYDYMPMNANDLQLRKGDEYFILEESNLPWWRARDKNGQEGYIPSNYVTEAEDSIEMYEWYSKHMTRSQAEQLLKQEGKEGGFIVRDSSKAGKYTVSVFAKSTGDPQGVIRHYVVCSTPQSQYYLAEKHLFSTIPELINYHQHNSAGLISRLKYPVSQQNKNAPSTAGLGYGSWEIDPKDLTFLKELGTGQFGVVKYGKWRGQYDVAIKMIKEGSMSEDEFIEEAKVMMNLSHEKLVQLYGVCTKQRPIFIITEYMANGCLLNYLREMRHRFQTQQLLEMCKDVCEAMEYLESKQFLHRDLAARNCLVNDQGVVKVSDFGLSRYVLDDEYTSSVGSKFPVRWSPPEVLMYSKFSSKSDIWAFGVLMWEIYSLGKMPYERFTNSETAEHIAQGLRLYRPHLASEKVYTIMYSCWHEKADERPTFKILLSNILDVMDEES
Description: The primary assay for compound inhibitory activity was the ADP generation assay described herein. Test compounds were diluted to desired concentrations in kinase reaction buffer and briefly incubated with recombinant full-length human BTK kinase with a (His)6 tag (81.3 kDa; Invitrogen Corporation, Carlsbad, Calif.). The assay as described is based on volumes used in a standard 384 well format using solid, white-wall plates. The reaction was subsequently initiated by the addition of ATP and myelin basic protein (MBP) substrate (Millipore Corporation, Waltham, Mass.). Composition of the assay reaction mixture ([…]) was: 5% v/v DMSO, 60 nM BTK, 1.6 µM ATP, and 20 µM MBP substrate. After incubation at room temperature for 60 min, […] (Promega Corporation, Madison, Wis.) was added to each well and incubated for an additional 40 minutes. The reagent stopped the kinase reaction and depleted the unconsumed ATP. Kinase Detection reagent ([…]; Promega Corporation) was then added to each well. The Kinase Detection reagent comprises reagents to convert ADP to ATP and provide luciferase and luciferin to detect ATP. Luminescence was measured on an EnVision microplate reader (PerkinElmer). The amount of luminescence from each reaction is directly correlated with BTK kinase activity. Percent inhibition and IC50 values were calculated by comparing enzyme activity in drug-treated wells to the appropriate controls.
IC50 values are determined using GraphPad Prism 5 software. The data were entered as an X-Y plot into the software as percent inhibition for each concentration of the drug. The concentration values of the drug were log transformed and the nonlinear regression was carried out using the “sigmoidal dose-response (variable slope)” option within the GraphPad software to model the data and calculate IC50 values. The IC50 values reported are the concentration of drug at which 50% inhibition was reached.
Activity (IC50) was determined in the BTK assays describe herein below, i.e. either the ADP generation assay and/or the time-resolved FRET assay, and the data are shown in Table III. The compound number corresponds to the compound numbers used in Table I. In the table below, “ADP Assay” refers to the assay which measures production of ADP resulting from use of ATP by the kinase; and “HTRF Assay” refers to the time resolved-FRET kinase assay described in the examples. Multiple values in a given column indicate the results of more than one assay for the given compound. Representative data of the type used to determine the IC50 values for the ADP assay in Table III are shown in FIG. 8 for compounds 3, 4, and 5.

Cytochrome P450 1A2 = target: T2, Cytochrome P450 1A2 (Homo sapiens, UniProt P05177); experiment: Cytochrome P450 inhibition (P450 BACULOSOMES, Vivid substrates); type: in vitro ADME; settings: 10-point titration, duplicate; read-out: CYP Activity 1A2 IC50
T2 construct: purchased Invitrogen
T2 sequence (P05177 1-516): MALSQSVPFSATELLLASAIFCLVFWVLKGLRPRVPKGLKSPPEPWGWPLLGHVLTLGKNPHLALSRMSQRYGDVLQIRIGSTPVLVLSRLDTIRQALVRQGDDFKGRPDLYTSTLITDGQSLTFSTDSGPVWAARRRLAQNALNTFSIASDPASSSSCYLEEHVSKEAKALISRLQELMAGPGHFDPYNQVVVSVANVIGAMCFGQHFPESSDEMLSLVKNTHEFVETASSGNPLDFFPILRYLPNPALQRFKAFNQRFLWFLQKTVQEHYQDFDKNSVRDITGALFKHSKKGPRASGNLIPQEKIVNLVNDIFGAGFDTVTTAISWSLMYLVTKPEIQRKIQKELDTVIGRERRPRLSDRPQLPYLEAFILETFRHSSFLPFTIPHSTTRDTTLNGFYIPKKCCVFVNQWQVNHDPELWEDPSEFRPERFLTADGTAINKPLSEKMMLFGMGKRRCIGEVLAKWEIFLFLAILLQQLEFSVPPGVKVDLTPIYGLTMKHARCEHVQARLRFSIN
Description: (§1) A number of ADME properties were determined for a representative disclosed compound, compound 3 (N-(3-(6-((3-morpholinophenyl)amino)-1H-pyrazolo[3,4-d]pyrimidin-4-yl)phenyl)acrylamide), which corresponds to compound 3 in Table I. Drug inhibition of cytochrome P450 enzymes is a common cause of drug-drug intereaction issues in the clinic. The compound was tested in assays for commonly screened Cytochrome P450s, specifically the 1A2, 2C9, 2C19, 2D6, and 3A4 isoforms. The IC50 determinations were performed in duplicate using 10-point titrations of test compound using Invitrogen P450 BACULOSOMES® reagents and Vivid® CyP450 Screening substrates.

Cytochrome P450 2C19 = target: T3, Cytochrome P450 2C19 (Homo sapiens, UniProt P33261); experiment: as above; type: in vitro ADME; settings: 10-point titration, duplicate; read-out: CYP Activity 2C19 IC50
T3 construct: purchased Invitrogen
T3 sequence (P33261 whole entry): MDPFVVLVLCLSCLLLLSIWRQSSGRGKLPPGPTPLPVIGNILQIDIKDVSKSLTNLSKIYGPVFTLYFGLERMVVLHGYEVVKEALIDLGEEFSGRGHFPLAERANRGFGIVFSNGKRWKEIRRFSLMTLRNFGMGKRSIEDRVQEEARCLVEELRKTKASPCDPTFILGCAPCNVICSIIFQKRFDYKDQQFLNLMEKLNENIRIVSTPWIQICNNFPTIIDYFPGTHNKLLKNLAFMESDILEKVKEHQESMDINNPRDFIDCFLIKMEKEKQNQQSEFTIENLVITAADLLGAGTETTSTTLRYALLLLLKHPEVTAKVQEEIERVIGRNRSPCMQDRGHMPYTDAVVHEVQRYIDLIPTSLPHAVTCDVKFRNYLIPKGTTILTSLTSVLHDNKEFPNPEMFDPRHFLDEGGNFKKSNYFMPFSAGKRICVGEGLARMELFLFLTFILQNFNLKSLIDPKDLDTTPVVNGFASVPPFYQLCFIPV
Description: as §1

Cytochrome P450 2C9 = target: T4, Cytochrome P450 2C9 (Homo sapiens, UniProt P11712); experiment: as above; type: in vitro ADME; settings: 10-point titration, duplicate; read-out: CYP Activity 2C9 IC50
T4 construct: purchased Invitrogen
T4 sequence (P11712 whole entry): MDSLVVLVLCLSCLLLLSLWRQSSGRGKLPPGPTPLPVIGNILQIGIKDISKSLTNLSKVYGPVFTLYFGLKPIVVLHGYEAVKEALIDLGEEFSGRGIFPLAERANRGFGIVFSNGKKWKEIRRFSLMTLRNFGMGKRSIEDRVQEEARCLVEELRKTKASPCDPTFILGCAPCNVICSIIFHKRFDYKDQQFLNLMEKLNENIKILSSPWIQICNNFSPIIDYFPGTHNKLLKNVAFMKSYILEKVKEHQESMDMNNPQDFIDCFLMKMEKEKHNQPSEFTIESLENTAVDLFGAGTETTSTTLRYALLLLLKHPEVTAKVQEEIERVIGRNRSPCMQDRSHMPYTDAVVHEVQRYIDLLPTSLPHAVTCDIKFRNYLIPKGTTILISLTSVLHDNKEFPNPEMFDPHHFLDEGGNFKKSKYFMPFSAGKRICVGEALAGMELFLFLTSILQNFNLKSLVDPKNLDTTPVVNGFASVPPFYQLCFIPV
Description: as §1

Cytochrome P450 2D6 = target: T5, Cytochrome P450 2D6 (Homo sapiens, UniProt P10635); experiment: as above; type: in vitro ADME; settings: 10-point titration, duplicate; read-out: CYP Activity 2D6 IC50
T5 construct: purchased Invitrogen
T5 sequence (P10635 whole entry): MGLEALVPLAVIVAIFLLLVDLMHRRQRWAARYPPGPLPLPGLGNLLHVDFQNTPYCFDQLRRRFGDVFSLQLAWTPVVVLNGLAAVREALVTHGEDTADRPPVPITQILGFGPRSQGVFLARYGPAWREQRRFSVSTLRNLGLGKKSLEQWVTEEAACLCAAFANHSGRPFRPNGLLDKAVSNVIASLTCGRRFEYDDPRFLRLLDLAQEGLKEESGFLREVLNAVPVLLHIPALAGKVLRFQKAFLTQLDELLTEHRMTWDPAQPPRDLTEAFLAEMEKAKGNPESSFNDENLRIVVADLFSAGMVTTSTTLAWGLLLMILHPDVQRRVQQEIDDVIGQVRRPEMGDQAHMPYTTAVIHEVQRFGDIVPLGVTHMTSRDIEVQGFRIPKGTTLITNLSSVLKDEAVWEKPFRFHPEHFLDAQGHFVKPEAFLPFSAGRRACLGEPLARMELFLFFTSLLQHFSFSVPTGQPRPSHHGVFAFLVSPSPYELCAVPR
Description: as §1

Cytochrome P450 3A4 = target: T6, Cytochrome P450 3A4 (Homo sapiens, UniProt P08684); experiment: as above; type: in vitro ADME
T6 construct: purchased Invitrogen
T6 sequence (P08684 whole entry): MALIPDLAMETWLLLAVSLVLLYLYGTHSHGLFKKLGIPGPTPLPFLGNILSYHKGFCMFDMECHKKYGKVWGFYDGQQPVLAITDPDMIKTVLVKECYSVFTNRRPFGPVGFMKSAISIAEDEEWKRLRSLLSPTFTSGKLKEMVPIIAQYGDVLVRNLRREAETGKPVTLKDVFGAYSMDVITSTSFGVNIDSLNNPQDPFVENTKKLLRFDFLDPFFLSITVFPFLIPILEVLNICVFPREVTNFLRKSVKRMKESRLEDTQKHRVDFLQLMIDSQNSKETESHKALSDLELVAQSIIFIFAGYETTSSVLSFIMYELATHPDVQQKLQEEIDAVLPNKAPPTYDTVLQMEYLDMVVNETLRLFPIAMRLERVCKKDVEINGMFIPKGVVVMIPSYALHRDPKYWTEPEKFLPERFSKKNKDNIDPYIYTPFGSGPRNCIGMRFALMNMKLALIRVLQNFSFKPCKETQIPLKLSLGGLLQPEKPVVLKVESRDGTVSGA
Description: as §1

[2] = Glutathione (GSH) trapping assay; type: in vitro ADME; settings: peak area vs intact compound 3 at time zero, 1 mg/mL human liver microsomal protein
Text: Drug metabolism in vivo can lead to reactive intermediates that form covalent adducts with cellular materials. Such covalent binding of reactive metabolites is potentially involved in severe adverse drug reactions. However, the covalent binding assay is of low throughput and costly, a qualitative trapping assay measuring trapping of drug glutathione conjugates in human liver microsomes can provide information on the propensity of a drug candidate to be involved in covalent binding reactions. A glutathione (GSH) trapping assay was carried out on representative disclosed compound, compound 3, and the results are shown in Table VIII. […] The assay was carried out with 1 mg total human liver microsomal protein per milliliter.

IC50 [1]: 5 nM and 6 nM and 8 nM | IC50 (Cytochrome P450 1A2): ≥ 10000 nM | IC50 (Cytochrome P450 2C19): 2630 nM | IC50 (Cytochrome P450 2C9): 2170 nM | IC50 (Cytochrome P450 2D6): ≥ 10000 nM | IC50 (Cytochrome P450 3A4; BOMCC substrate, read-out: CYP Activity 3A4/BOMCC IC50): 670 nM | IC50 (Cytochrome P450 3A4; DBOMF substrate, read-out: CYP Activity 3A4/DBOMF IC50): 2050 nM | % Compared to Parent Compound, 0 min ([2]; 0 min): 100% | % Compared to Parent Compound, 60 min ([2]; 60 min): 47%
Compound: C=CC(=O)Nc1cccc(-c2nc(Nc3cccc(N4CCOCC4)c3)nc3[nH]ncc23)c1 [Compound 3, N-(3-(6-((3-morpholinophenyl)amino)-1H-pyrazolo[3,4-d]pyrimidin-4-yl)phenyl)acrylamide]
